Source: US20250257111A1, “Supramolecular Complex of a Biomolecule” (Cambridge Enterprise Limited, priority 2022, published 2025)
One block for each compound: values may come before it. Square brackets hold non-standard residues; d marks the D form. Peptide text beside a SMILES is read from it. 2Nal = N[C@@H](Cc1ccc2ccccc2c1)C(=O)O

What was measured:
[1] = system: 1:1 complex of F′GG-CB[8]; assay: ITC: secondary association of tripeptides with the 1:1 complex of F′GG-CB[8]; format: binding; conditions: for secondary association / binding to F′GG-CB[8]: in words; for Ka: 10 mM phosphate buffer pH 7.0, 298 K, averaged with three replicates
Method: (§1) Isothermal titration calorimetry (ITC) was employed to study binding thermodynamics of heteropeptide dimerization (FIG. 2c and additional data not shown). Titration of F′GG (3.0 mM) into CB[8](0.1 mM) led to a stepwise binding curve with two transitions at molar ratios of 1.0 and 2.0 (FIG. 2c). The first-step binding constant (K1) is 6.6×10^5 M^−1, while the second-step (K2) is 9.4×10^3 M^−1. This indicates negative cooperativity where K1>K2^18,19,23 Such favourable 1:1 complexation enables secondary access of electron-rich aromatic peptides.
(§2) ITC experiments were operated on a Malvern MicroCal Auto-ITC200 apparatus at 298 K in 10 mM phosphate buffer with pH 7.0. In a of 1 injection of 0.6 μL and 32 consecutive injections of 1.2 μL with 90 s intervals between injections. The first data point was removed before analysis. The ITC data were fitted by MicroCal Analysis Centre software using one set of sites model. In a typical experiment for homoternary complexation, the host molecule (CB[8]) was loaded in the sample cell with a concentration of 0.1 mM, and the guest peptide was loaded in the syringe with a concentration of 2.0 mM. The injection and interval settings were the same as above. The first data point was removed from the data set before analysis. The obtained ITC curves were fitted by MicroCal Analysis Centre software using sequential binding model. All parameters were averaged with three replicates, s.d. n=3.

[2] = UV quantification of insulin on-resin recognition, 8-day storage and on-demand release; format: physicochemical
Method: UV spectra were obtained on a Cary 4000 Ultravioletvisible Spectrometer. A pair of quartz cuvettes with 2 mm gap was used. Double beam mode with a fixed 2 nm spectral bandwidth and baseline correction were selected. In a typical run, 300 μl of 1 mM solution was transferred to the quartz cuvette and was scanned compared to phosphate buffer in D2O. UV spectra were obtained in the linear absorption range (0.2-0.8) for better quantification.
1 N HCl was immediately added to reach acid concentration of 5 mM. […] In a typical experiment, 8 μmol F′GGGGG equivalent of resin H2O suspension was added to a 12 ml syringe with a polyester frit (r=8.0 mm, h=2.0 mm). After H2Owas drained, 8 ml of 0.1 mM CB[8] solution was added to the resin and the plunge and a stopper were assembled to the syringe to form a sealed chamber. The syringe was transferred onto a wrist-action shaker and shaken for 12 hours. […] Then, the liquid (resin-treated solution) in syringe was drained thoroughly and the resin was washed with H2Oonce. After that, 0.8 ml of 2 mM DMADA solution (in 5 mM of HCl) was added to the resin and shaken gently for an additional 3 hours. The solution (released solution) was drained.
The 8-day storage and release experiment was conducted as follows. 9 syringes were prepared each with 8 μmol F′GGGGG equivalent of resin H2Osuspension. […] All syringes with the resin were kept at room temperature. Starting from day 0 to day 8, on each day, a syringe with resin was added with 0.8 ml of 2 mM DMADA solution (to get released solution, one per day). All yielded solutions were analyzed on UV spectroscopy immediately. Numbers to calculate released percentage in FIG. 4g were absorbance at 276 nm.

[3] = CD secondary structure verification of released insulin; format: physicochemical
Method: CD measurements were performed on a Chirascan spectrometer (Applied Photophysics). Scans were carried out at 298 K from 200-500 nm at 1.0 nm intervals. The acquisition time was 0.5 second in a 0.1 cm path length quartz cuvette. CD spectra were collected using solutions from the above UV experiments of the 8-day storage and release experiments. […] All solutions were diluted 2× before the measurements. All scans were collected and averaged out over three scans with background noise correction.

[4] = cited from earlier work
[5] = ITC: titration of F′GG into CB[8] (stepwise binding); conditions: F′GG (3.0 mM) into CB[8] (0.1 mM)
Method: as §1
as §2, with “All parameters were averaged with three replicates, s.d. n=3.” left out

secondary association / binding to F′GG-CB[8] [1]: no secondary association
Compound: NC(=O)CNC(=O)CNC(=O)[C@@H](N)CCC(=O)O [EGG, reference compound] (H-Glu-Gly-Gly-NH2)

Compound: NC(=O)CNC(=O)CNC(=O)[C@@H](N)Cc1ccc2ccccc2c1 [NpGG, (S)-2-amino-N-(2-((2-amino-2-oxoethyl)amino)-2-oxoethyl)-3-(naphthalen-2-yl) propanamide] (H-[2Nal]-Gly-Gly-NH2)
Ka [1]: 382 ± 22 10^3M^−1

secondary association / binding to F′GG-CB[8] [1]: no secondary binding
Compound: NCC(=O)NCC(=O)N[C@@H](Cc1ccc(O)cc1)C(N)=O [GGY, (S)-2-(2-(2-aminoacetamido)acetamido)-3-(4-hydroxyphenyl)propanamide] (H-Gly-Gly-Tyr-NH2)

Compound: NCC(=O)N[C@@H](Cc1ccc(O)cc1)C(=O)NCC(N)=O [GYG] (H-Gly-Tyr-Gly-NH2)
Ka [1]: 4 ± 0.3 10^3M^−1

Compound: NCC(=O)N[C@@H](Cc1ccccc1)C(=O)NCC(N)=O [GFG, (S)—N-(2-amino-2-oxoethyl)-2-(2-aminoacetamido)-3-phenylpropanamide] (H-Gly-Phe-Gly-NH2)
Ka [1]: 58 ± 3 10^3M^−1

Compound: NC(=O)CNC(=O)CNC(=O)[C@@H](N)Cc1c[nH]c2ccccc12 [WGG, (S)-2-amino-N-(2-((2-amino-2-oxoethyl)amino)-2-oxoethyl)-3-(1H-indol-3-yl) propanamide] (H-Trp-Gly-Gly-NH2)
Ka [1]: 460 ± 53 10^3M^−1

secondary association / binding to F′GG-CB[8] [1]: no secondary association
Compound: CC(C)C[C@H](N)C(=O)NCC(=O)NCC(N)=O [LGG, reference compound] (H-Leu-Gly-Gly-NH2)

Compound: insulin: Insulin (Human Recombinant), purchased; widely-used biopharmaceutical for diabetes treatment
UV absorbance at 276 nm, released ([2]; release on day 0): 0.176 abs
UV absorbance at 276 nm, released ([2]; release on day 2, storage at room temperature): 0.1768 abs
UV absorbance at 276 nm, released ([2]; release on day 5, storage at room temperature): 0.1683 abs
UV absorbance at 276 nm, released ([2]; release on day 8, storage at room temperature): 0.1739 abs
secondary structures of insulin after storage ([3]; after 2, 5, 8 days of storage under room temperature on functionalized resin): intact
CD absorbance at 208 nm, signal (mean of repeats) ([3]; insulin, original): −56.4 θm · deg
CD absorbance at 208 nm, signal (mean of repeats) ([3]; released on day 2): −56.4 θm · deg
CD absorbance at 208 nm, signal (mean of repeats) ([3]; released on day 5): −50.3 θm · deg
CD absorbance at 208 nm, signal (mean of repeats) ([3]; released on day 8): −52.3 θm · deg

Compound: NC(=O)CNC(=O)CNC(=O)[C@@H](N)Cc1ccccc1 [FGG, (S)-2-amino-N-(2-((2-amino-2-oxoethyl)amino)-2-oxoethyl)-3-phenylpropanamide] (H-Phe-Gly-Gly-NH2)
Ka [1]: 356 ± 26 10^3M^−1
binding strength K of homodimer 2FGG-CB[8] [4]: ca. 10^11 M^−2

secondary association / binding to F′GG-CB[8] [1]: no secondary association
Compound: NCCCC[C@H](N)C(=O)NCC(=O)NCC(N)=O [KGG, (S)-2,6-diamino-N-(2-((2-amino-2-oxoethyl)amino)-2-oxoethyl)hexanamide, reference compound] (H-Lys-Gly-Gly-NH2)

Compound: NCC(=O)N[C@@H](Cc1ccc2ccccc2c1)C(=O)NCC(N)=O [GNpG, (S)—N-(2-amino-2-oxoethyl)-2-(2-aminoacetamido)-3-(naphthalen-2-yl)propanamide] (H-Gly-[2Nal]-Gly-NH2)
Ka [1]: 165 ± 10 10^3M^−1

Compound: NCC(=O)NCC(=O)N[C@@H](Cc1ccc2ccccc2c1)C(N)=O [GGNp, (S)-2-(2-(2-aminoacetamido)acetamido)-3-(naphthalen-2-yl)propanamide] (H-Gly-Gly-[2Nal]-NH2)
Ka [1]: 90 ± 2 10^3M^−1

Compound: NC(=O)CNC(=O)CNC(=O)[C@@H](N)Cc1ccc(O)cc1 [YGG] (H-Tyr-Gly-Gly-NH2)
Ka [1]: 3 ± 5 10^3M^−1

Compound: NCC(=O)NCC(=O)N[C@@H](Cc1ccccc1)C(N)=O [GGF, (S)-2-(2-(2-aminoacetamido)acetamido)-3-phenylpropanamide] (H-Gly-Gly-Phe-NH2)
Ka [1]: 22 ± 1 10^3M^−1

Compound: NCC(=O)N[C@@H](Cc1c[nH]c2ccccc12)C(=O)NCC(N)=O [GWG, (S)—N-(2-amino-2-oxoethyl)-2-(2-aminoacetamido)-3-(1H-indol-3-yl)propanamide] (H-Gly-Trp-Gly-NH2)
Ka [1]: 103 ± 6 10^3M^−1

first-step binding constant (K1) [5]: 660000 M⁻¹
second-step binding constant (K2) [5]: 9400 M⁻¹
Compound: (S)-2-amino-N-(2-((2-amino-2-oxoethyl)amino)-2-oxoethyl)-3-(perfluorophenyl) propenamide [F′GG]
